Measured values taken from patent US20190209581A1, “DOSAGE REGIMEN FOR TREATMENT OF SOLID TUMORS” (Eli Lilly and Company, priority 2016, published 2019).

How the values were obtained:
[1] = Toxicokinetics in Beagle dogs; type: in vivo, dog; details: for Cmax: beagle, po
Protocol: A study is carried out to assess the Toxicity and Toxicokinetics of 4,4,4-trifluoro-N-[(1S)-2-[[(7S)-5-(2-hydroxyethyl)-6-oxo-7H-pyrido[2,3-d][3]benzazepin-7-yl]amino]-1-methyl-2-oxo-ethyl]butanamide in dogs given oral gavage doses of 0 or 1.3 mg/kg once daily for 6 days or 0.3 or 3 mg/kg every other day for a total of 3 doses. 4,4,4-Trifluoro-N-[(1S)-2-[[(7S)-5-(2-hydroxyethyl)-6-oxo-7H-pyrido[2,3-d][3]benzazepin-7-yl]amino]-1-methyl-2-oxo-ethyl]butanamide is combined with a vehicle comprising 1% carboxymethylcellulose sodium, 0.25% polysorbate 80 and 0.05% Dow Corning® Antifoam 1510-US in purified water. Dogs (beagle), Covance Research Products, 1 animal/sex/group are fed daily (soon after dosing) and are fasted overnight prior to scheduled chemistry blood collections and necropsy. The test compound is administered by oral gavage in a volume of 2 mL/kg body weight. The duration of the study for all groups is 6 days.
Groups 01 and 04, Blood is collected at the following times relative to dosing on Day 1: 0.5, 1, 2, 4, 8, and 24 hours postdose.
Groups 02 and 04: Blood is collected at the following times relative to dosing on Days 2 and 6: 0 (predose; Day 6 only), 0.5, 1, 2, 4, 8, 24, 30, and 48 hours postdose.

[2] = tested on: U-87 MG human glioblastoma cell line; assay: Tumor growth inhibition, U-87 MG xenograft; type: in vivo; details: U-87 MG in mice, oral 8 mg/kg, (Mon, Wed, Fri)x4; p <0.0001
Protocol: (§1) To evaluate in vivo efficacy and effect of 4,4,4-Trifluoro-N-[(1S)-2-[[(7S)-5-(2-hydroxyethyl)-6-oxo-7H-pyrido[2,3-d][3]benzazepin-7-yl]amino]-1-methyl-2-oxo-ethyl]butanamide on inhibition of Notch processing pharmacodynamics (PD), several cell lines- and patient-derived xenograft models are used. A2780 is a human ovarian cell line (Sigma-Aldrich, No. 93112519); SW480 is a human colorectal cell line (ATCC No. CCL-228); HCT 116 is a human colorectal cell line (ATCC No. CCL-247); U-87 MG is a human glioblastoma cell line (ATCC No. HTB-14); A375 is a human malignant melanoma cell line (ATCC No. CRL-1619); K-562 is a human chronic myelogenous leukemia (CML) cell line characterized by the presence of a fusion transcript comprised of the Bcr and Abl1 genes (ATCC No. CCL-243); Jurkat; HEL 92.1.7 is a human erythroleukemia cell line (ATCC No. TIB-180). […] Tumor growth and body weight are monitored over time to evaluate efficacy and signs of toxicity. Bidimensional measurements of tumors are performed twice a week and tumor volumes are calculated based on the following formula: (Tumor Volume)=[(L)×(W2)×(Π/6)] where L is mid-axis length and W is mid-axis width. […] The log volume data are analyzed with a two-way repeated measures analysis of variance by time and treatment using the MIXED™ procedures in SAS™ software (version 8.2). […]

[3] = tested on: HEL 92.1.7 human erythroleukemia cell line; assay: Tumor growth inhibition, HEL 92.1.7 xenograft; type: in vivo; details: HEL 92.1.7 in mice, oral 8 mg/kg, Q2dx14; p NS
Protocol: as §1

[4] = tested on: human colon carcinoma (EL1989); assay: Tumor growth inhibition, patient-derived tumor model EL1989; type: in vivo; details: EL1989 in mice, oral 10 mg/kg (Q2Dx7), 11-days OFF, 8 mg/kg (Mon, Wed, Fri)x3; p <0.0001
Protocol: as §1

[5] = tested on: human colon carcinoma (EL2144); assay: Tumor growth inhibition, patient-derived tumor model EL2144; type: in vivo; details: EL2144 in mice, oral 10 mg/kg, Q2Dx8; p <0.0001
Protocol: as §1

[6] = Beagle dog, single oral dose 1.3 mg/kg, Subject 0007_M
[7] = Beagle dog, single oral dose 1.3 mg/kg, Subject 0008_F
[8] = Beagle dogs, multiple oral doses (3 doses/week), 0.3 mpk, mean n = 2
[9] = Beagle dogs, multiple oral doses (3 doses/week), 3 mpk, mean n = 2
[10] = Beagle dogs, single oral dose 1.3 mg/kg, Mean, n = 2
[11] = Beagle dogs, single oral dose, 0.3 mpk, mean n = 2
[12] = Beagle dogs, single oral dose, 3 mpk, mean n = 2

In the case of `C[C@H](NC(=O)CCC(F)(F)F)C(=O)N[C@@H]1C(=O)N(CCO)c2ncccc2-c2ccccc21` [Compound 1, 4,4,4-trifluoro-N-[(1S)-2-[[(7S)-5-(2-hydroxyethyl)-6-oxo-7H-pyrido[2,3-d][3]benzazepin-7-yl]amino]-1-methyl-2-oxo-ethyl]butanamide], the AUC [1, 6] is reported as 4030 ng·h/mL, the Tmax [1, 6] is reported as 30 min and the AUC [1, 7] is reported as 4500 ng·h/mL. For the same compound, the Tmax [1, 7] was 30 min, the AUC [1, 8] was 3070 ng·h/mL and the Tmax [1, 8] was 45 min. The AUC [1, 9] was 14400 ng·h/mL, the Tmax [1, 9] was 45 min and the AUC [1, 10] was 4270 ng·h/mL. The Tmax [1, 10] was 30 min, the AUC [1, 11] was 1290 ng·h/mL and the Tmax [1, 11] was 30 min. For the same compound, the AUC [1, 12] was 5860 ng·h/mL, the Tmax [1, 12] was 30 min and the Cmax ([1]; both sexes, dog, blood, 1.3 mg/kg, Beagle dogs, single oral dose 1.3 mg/kg, Mean, n = 2) was 1940 ng/mL. For the same compound, the Cmax ([1]; both sexes, dog, in vivo, 0.3 mg/kg, Beagle dogs, multiple oral doses (3 doses/week), 0.3 mpk, mean n = 2) was 2460 ng/mL, the Cmax ([1]; both sexes, dog, in vivo, 0.3 mg/kg, Beagle dogs, single oral dose, 0.3 mpk, mean n = 2) was 309 ng/mL and the Cmax ([1]; both sexes, dog, in vivo, 3 mg/kg, Beagle dogs, multiple oral doses (3 doses/week), 3 mpk, mean n = 2) was 4530 ng/mL. The Cmax ([1]; both sexes, dog, in vivo, 3 mg/kg, Beagle dogs, single oral dose, 3 mpk, mean n = 2) was 2730 ng/mL, the “24 hour drug concentrations” value ([1]; dog, daily and TIW regimens) was “minimal” and the Cmax ([1]; female, dog, blood, 1.3 mg/kg, Beagle dog, single oral dose 1.3 mg/kg, Subject 0008_F) was 2070 ng/mL. The Cmax ([1]; male, dog, blood, 1.3 mg/kg, Beagle dog, single oral dose 1.3 mg/kg, Subject 0007_M) was 1800 ng/mL, the “% TGI” value [2] was 53.33 (<0.0001) % and the “% TGI” value [3] was 7.20 (NS) %. The “% TGI” value [4] was 70.42 (<0.0001) % and the “% TGI” value [5] was 53.37 (<0.0001) %.
